For the test, the target named is aldosterone synthase (CYP11B2) (Macaca fascicularis, UniProt A0A2K5UPL9). The test can be described thus: aldosterone synthase inhibition assay. It is filed as biochemical, cynomolgus monkey. The note with it: cynomolgus adrenal gland mitochondria, 2 μM corticosterone, aldosterone quantified by mass spectrometry. In outline:
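Cynomolgus adrenal mitochondria ([…]) used as CYP11B2 source with 2 μM corticosterone in 100 mM potassium phosphate pH 7.4, 1% DMSO; reaction started with 1 mM NADPH, run 60-90 min at 37° C. Aldosterone measured by mass spectrometry; IC50 from 4-parameter logistic fit, no-NADPH blank as 0%.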
aldosterone synthase (CYP11B2), sequence (A0A2K5UPL9 1-503): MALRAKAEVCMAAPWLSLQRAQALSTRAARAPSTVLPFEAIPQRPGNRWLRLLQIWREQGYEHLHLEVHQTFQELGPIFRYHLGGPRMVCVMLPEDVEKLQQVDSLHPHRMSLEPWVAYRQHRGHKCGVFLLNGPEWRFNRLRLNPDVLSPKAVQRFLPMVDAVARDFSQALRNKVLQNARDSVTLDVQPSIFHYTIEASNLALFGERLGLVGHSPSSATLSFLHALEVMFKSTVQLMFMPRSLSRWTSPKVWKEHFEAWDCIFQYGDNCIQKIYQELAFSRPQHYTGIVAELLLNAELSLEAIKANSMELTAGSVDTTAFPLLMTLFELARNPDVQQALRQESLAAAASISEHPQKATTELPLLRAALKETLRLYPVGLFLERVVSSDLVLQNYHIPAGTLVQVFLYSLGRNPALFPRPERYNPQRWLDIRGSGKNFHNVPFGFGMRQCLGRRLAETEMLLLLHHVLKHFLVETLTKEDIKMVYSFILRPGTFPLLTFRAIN
In general, IC50 refers to the concentration at which inhibition is half-maximal. The low end stands for greater potency, the high end for weaker potency. Regarding `OC1COCc2c(-c3ccn4ccnc4c3)cncc21` (single isomer, unassigned) [Compound 99, 8-Imidazo[1,2-a]pyridin-7-yl-3,4-dihydro-1H-pyrano[4,3-c]pyridin-4-ol], half-maximal inhibition (IC50) required 5000 nM.

`OC1COCc2c(-c3ccc4nncn4c3)cncc21` (single isomer, unassigned) [Compound 100, 8-[1,2,4]Triazolo[4,3-a]pyridin-6-yl-3,4-dihydro-1H-pyrano[4,3-c]pyridin-4-ol]: half-maximal inhibition (IC50) required 2300 nM.

`OC1COCc2c(-c3ccn4ccnc4c3)cncc21` (single isomer, unassigned) [Compound 101, 8-Imidazo[1,2-a]pyridin-7-yl-3,4-dihydro-1H-pyrano[4,3-c]pyridin-4-ol] came in with an IC50 of 225 nM. `O=C1CCc2cc(-c3cncc4c3COCC4O)ccc21` (single isomer, unassigned) [Compound 103, 5-(4-Hydroxy-3,4-dihydro-1H-pyrano[4,3-c]pyridin-8-yl)-indan-1-one] registered an IC50 of 10 nM.

As to `NC(=O)c1cccc2cc(-c3cncc4c3COCC4O)cnc12` (single isomer, unassigned) [Compound 104, 3-(4-Hydroxy-3,4-dihydro-1H-pyrano[4,3-c]pyridin-8-yl)-quinoline-8-carboxylic acid amide], the IC50 turned out to be 81 nM. For `NC(=O)c1cccc2cc(-c3cncc4c3COCC4O)cnc12` (single isomer, unassigned) [Compound 105, 3-(4-Hydroxy-3,4-dihydro-1H-pyrano[4,3-c]pyridin-8-yl)-quinoline-8-carboxylic acid amide], the IC50 worked out at 51.1 nM.

On to `Cn1ncc2c(C#N)cc(-c3cncc4c3COCC4O)cc21` (single isomer, unassigned) [Compound 106, 6-(4-Hydroxy-3,4-dihydro-1H-pyrano[4,3-c]pyridin-8-yl)-1-methyl-1H-indazole-4-carbonitrile], for which it took 599 nM to reach half-maximal inhibition (IC50). The figure for `OC1COCc2c(-c3ccc4c(c3)COCCO4)cncc21` (single isomer, unassigned) [Compound 107, 8-(2,3-Dihydro-5H-benzo[e][1,4]dioxepin-7-yl)-3,4-dihydro-1H-pyrano[4,3-c]pyridin-4-ol] is 79.9 nM; for `OC1COCc2c(-c3ccc4c(c3)COCCO4)cncc21` (single isomer, unassigned) [Compound 108, 8-(2,3-Dihydro-5H-benzo[e][1,4]dioxepin-7-yl)-3,4-dihydro-1H-pyrano[4,3-c]pyridin-4-ol] it is 771 nM. The figure for `CC(=O)N1Cc2ccc(-c3cncc4c3COCC4O)cc2C1` (single isomer, unassigned) [Compound 109, 1-[5-(4-Hydroxy-3,4-dihydro-1H-pyrano[4,3-c]pyridin-8-yl)-1,3-dihydro-isoindol-2-yl]-ethanone] is 544 nM; for `O=c1ccoc2cc(-c3cncc4c3COCC4O)ccc12` (single isomer, unassigned) [Compound 110, 7-(4-Hydroxy-3,4-dihydro-1H-pyrano[4,3-c]pyridin-8-yl)-chromen-4-one] it is 13 nM.

Compound `OC1c2cncc(-c3ccc4c(c3)COCCO4)c2COC12CC2` (single isomer, unassigned) [Compound 111, 8-(3,5-dihydro-2H-1,4-benzo[e][1,4]dioxepin-7-yl)spiro[1,4-dihydropyrano[4,3-c]pyridine-3,1′-cyclopropane]-4-ol] showed an IC50 of 114 nM. This IC50 lies about 8.8-fold higher than the previous one. Next, `OC1c2cncc(-c3ccc4c(c3)COCCO4)c2COC12CC2` (single isomer, unassigned) [Compound 112, 8-(3,5-dihydro-2H-1,4-benzo[e][1,4]dioxepin-7-yl)spiro[1,4-dihydropyrano[4,3-c]pyridine-3,1′-cyclopropane]-4-ol]: 40.9 nM; `Cn1nc(C#N)c2ccc(-c3cncc4c3COCC4O)cc21` (single isomer, unassigned) [Compound 113, 6-(4-Hydroxy-3,4-dihydro-1H-pyrano[4,3-c]pyridin-8-yl)-1-methyl-1H-indazole-3-carbonitrile]: 14.5 nM.

These data come from US9890171B2, “Aldosterone synthase inhibitors” (Boehringer Ingelheim International GmbH, priority 2014, dated 2018).
